Source: PubChem BioAssay (NCI)
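Compound exposure: 48 hours, 5 concentrations, 96-well plates. Here, GI50 denotes the concentration required for 50% inhibition of growth. At the TGI there is no net growth.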

What was measured:
Assay in all cases: inhibition of tumour cell growth, NCI panel, 48 h
LOX IMVI melanoma = system: LOX IMVI melanoma
OVCAR-8 ovarian = system: OVCAR-8 ovarian
RXF 393 renal = system: RXF 393 renal
SK-MEL-2 melanoma = system: SK-MEL-2 melanoma
OVCAR-4 ovarian = system: OVCAR-4 ovarian
CAKI-1 renal = system: CAKI-1 renal
BT-549 breast = system: BT-549 breast
KM12 colon = system: KM12 colon
786-0 renal = system: 786-0 renal
UACC-257 melanoma = system: UACC-257 melanoma

| Structure (SMILES) | GI50 (LOX IMVI melanoma) | TGI (LOX IMVI melanoma) | GI50 (OVCAR-8 ovarian) | TGI (OVCAR-8 ovarian) | GI50 (RXF 393 renal) | TGI (RXF 393 renal) | GI50 (SK-MEL-2 melanoma) | TGI (SK-MEL-2 melanoma) | GI50 (OVCAR-4 ovarian) | TGI (OVCAR-4 ovarian) | GI50 (CAKI-1 renal) | TGI (CAKI-1 renal) | GI50 (BT-549 breast) | TGI (BT-549 breast) | GI50 (KM12 colon) | TGI (KM12 colon) | GI50 (786-0 renal) | TGI (786-0 renal) | GI50 (UACC-257 melanoma) | TGI (UACC-257 melanoma) |
| --- | --- | --- | --- | --- | --- | --- | --- | --- | --- | --- | --- | --- | --- | --- | --- | --- | --- | --- | --- | --- |
| COc1cc(C(=O)N2CCN(C(=O)c3cc(OC)c(OC)c(OC)c3)C2=S)cc(OC)c1OC | 15400 nM | 30.7 µM | 21.9 µM | 45.9 µM | 14300 nM | 28.1 µM | 16.3 µM | 34.6 µM | 16.9 µM | 50.1 µM | 12.3 µM | 24.7 µM | 17400 nM | 34.1 µM | 14200 nM | 39.7 µM | 11.4 µM | 26.8 µM | 21.7 µM | 43.9 µM |
| COC(=O)c1c2c(c(C)[n+]([O-])c1C)C(=O)C=C(NCc1ccc(F)cc1)C2=O | 224 nM | 2.09 µM | 0.37 µM | 1.93 µM | 1430 nM | 2.93 µM | 1.11 µM | 2.78 µM | 0.254 µM | 1.1 µM | 0.527 µM | 2.76 µM | 1300 nM | 2.63 µM | 357 nM | 2.22 µM | 1.76 µM | 4.39 µM | 0.258 µM | 0.822 µM |
| COC(=O)c1ccc2c(c1)C(=O)c1c-2n(CCCN=[N+]=[N-])c(=O)c2cc(OC)c(OC)cc12 | > 100000 nM | > 100 µM | > 100 µM | > 100 µM | > 100000 nM | > 100 µM | > 100 µM | > 100 µM | > 100 µM | > 100 µM | > 100 µM | > 100 µM | > 100000 nM | > 100 µM | > 100000 nM | > 100 µM | > 100 µM | > 100 µM | > 100 µM | > 100 µM |
| O=C(/C=C/c1ccc[nH]1)c1ccc(-n2ccc(C(F)(F)F)n2)cc1 | > 100000 nM | > 100 µM | > 100 µM | > 100 µM | 3610 nM | > 31.2 µM | > 100 µM | > 100 µM | 99.1 µM | > 100 µM | > 31.6 µM | > 100 µM | 425 nM | 2.5 µM | 463 nM | 8.95 µM | 6.17 µM | > 100 µM | > 100 µM | > 100 µM |
| CNCCOC(=O)/C=C1\CC[C@H]2[C@@H]([C@@H](O)C(=O)[C@@H]3[C@]2(C)CC[C@H](O)[C@]3(C)C(=O)OC)[C@H]1C | 357 nM | 1.38 µM | 0.329 µM | 1.11 µM | 205 nM | 0.579 µM | 1.79 µM | 4.57 µM | 0.222 µM | 0.484 µM | 0.315 µM | 1.08 µM | 286 nM | 1.09 µM | 564 nM | 2.12 µM | 0.226 µM | 0.681 µM | 0.479 µM | 1.73 µM |
| O=c1c(F)cn(Cc2ccc(C34CC5CC(CC(C5)C3)C4)c(O)c2)c(=O)n1Cc1ccc(C23CC4CC(CC(C4)C2)C3)c(O)c1 | 6980 nM | 20 µM | 14.5 µM | 45.5 µM | 6500 nM | > 100 µM | 18.8 µM | 41.8 µM | 14.8 µM | 30.8 µM | 17.5 µM | 31.6 µM | 13100 nM | 31.3 µM | 15500 nM | 32.8 µM | 11.8 µM | 28.3 µM | 20.7 µM | 50.7 µM |
| O=C(Nc1cccc(C(F)(F)F)c1)c1ccc(NC2=C(Cl)C(=O)N(Cc3ccc(Cl)cc3Cl)C2=O)cc1 | 1630 nM | 3.44 µM | 3.42 µM | 19.7 µM | 4760 nM | 28.3 µM | 10.9 µM | 25.6 µM | 11.1 µM | 42.6 µM | 16.8 µM | 34.6 µM | 2200 nM | 5.71 µM | 14600 nM | 31.4 µM | 3.96 µM | 14.3 µM | 15.9 µM | 42.2 µM |
| COc1cc(Cl)cc(-c2nn(-c3cccc(NC(=O)c4ccc(N5CCOCC5)c(C(F)(F)F)c4)c3)cc2-c2ccncc2)c1 | 15800 nM | > 100 µM | 6.33 µM | > 100 µM | 830 nM | 23.9 µM | 21.1 µM | > 100 µM | 39.7 µM | > 100 µM | 4.4 µM | > 100 µM | 89000 nM | > 100 µM | 5380 nM | > 100 µM | 3.23 µM | 29.8 µM | 21.7 µM | 69.1 µM |
| CCOC(=O)Nc1cc2c(c(N)n1)N=C(c1ccccc1)CO2 | 368 nM | > 100 µM | 0.418 µM | > 32.9 µM | 275 nM | 32.1 µM | 41.7 µM | > 100 µM | 2.46 µM | 36.4 µM | 0.102 µM | 7.62 µM | 23100 nM | > 100 µM | 36.6 nM | 2.11 µM | 1.21 µM | 20.9 µM | 17.5 µM | 99.6 µM |
| C[C@@H]1C[C@@H]([C@@H](CC2CC(=O)NC(=O)C2)OC(=O)CC(=O)c2ccccc2)C(=O)[C@@H](C)C1 | 646 nM | > 100 µM | 0.405 µM | > 68.8 µM | 496 nM | 25.1 µM | 0.88 µM | 22.8 µM | 1.91 µM | > 100 µM | 0.252 µM |  | 2320 nM | 66.7 µM | 888 nM | 70.6 µM | 0.293 µM | 13.2 µM | 0.358 µM | 13 µM |
| N#C/C(=C\c1ccc2ccccc2c1)C(=O)c1ccccc1 |  | 52 µM |  | > 46.4 µM |  | > 55.4 µM |  | > 100 µM |  | > 100 µM |  | > 100 µM |  | > 100 µM |  | > 100 µM |  | > 85.5 µM |  | > 100 µM |
